Measurements reported in patent US11117855B2, “Crystalline form of triethylenetetramine tetrahydrochloride and its pharmaceutical use” (Orphalan S.A., priority 2018, dated 2021).
Values joined by “and” are separate entries in the source; they are usually repeats but may differ in a detail not shown here. Equal values may be shown once. Read-outs that look alike come from different tables or passages of the source.

How the values were obtained:
[1] = helium pycnometry; for True Density: individual runs; for True Density MEAN: mean of runs
Procedure: Determination of True Density by Helium Pychnometry.
Equipment used: Micromeritics AccuPyc II 1340
Run fill pressure 19.5 psig
Equilibration rate 0.02 psig
Percentage full scale 0.05%
Testing was performed in duplicate.

[2] = 25° C.; for DVS weight gain at high relative humidity: 90% RH and above; for DVS weight above reference weight after sorption/desorption cycle: end of second desorption stage (0-95% RH-0%)
Procedure: Dynamic Vapour Sorption (DVS) Analysis DVS analyses are performed using an SMS DVS Intrinsic analyser (serial number PF 140088) in open aluminium pans at 25° C. with a nitrogen purge gas at 100 ml/min. The stability criterion was a weight change lower than 0.002% on a 5 minute time frame (with a minimum of 10 min and a maximum of 100 min).

[3] = Procedure: Onset, Peak Temperatures and Enthalpies Thermogravimetric Analysis (TGA) Thermogravimetric analyses were performed using a Pyris 1 TGA analyser (serial number 537N7052501) in sealed aluminium pans, punctured before analysis, under nitrogen flush at 20 mL/min.
[4] = Heckel test (compaction simulator, yield pressure, strain rate sensitivity); conditions: for Compact observations / Ejection Force / Peak Force of Upper punch / Yield Pressure: individual runs; for Yield pressure Slow (0.1 mm/s) / Yield pressure fast (300 mm/s): summary mean of runs; for Strain rate sensitivity: yield pressure at 300 mm/s compared to 0.1 mm/s
[5] = six months at 40° C. and 75% humidity
Procedure: TETA.4HC obtained in accordance with Reference Example 3 was compressed to form a tablet. The tablet was aged for six months at 40° C. and 75% humidity.

[6] = fast speed 300 mm/s, listed as Ref Example 3
[7] = slow speed 0.1 mm/s, listed as Ref Example 3

Cl.Cl.Cl.Cl.NCCNCCNCCN [Example 2, triethylenetetramine tetrachloride]
True Density [1]: 1.3693 g/mL and 1.3973 g/mL and 1.3678 g/mL
True Density MEAN [1]: 1.3686 g/mL
DVS weight gain at high relative humidity [2]: ≥ 55.8%
DVS weight gain at high relative humidity ([2]; listed as Form B): 50-59%
DVS weight above reference weight after sorption/desorption cycle [2]: almost reaches its reference weight
TGA weight loss (total) ([3]; 25-300° C., 10° C./min): 10.24%
TGA weight loss starting temperature ([3]; 25-300° C., 10° C./min, nitrogen): 225 °C
TGA weight loss ([3]; between 225.0-289.5° C.): 2.64%
TGA weight loss ([3]; between 289.5-299.0° C.): 7.60%
Compact strength ([4]; fast speed 300 mm/s): 9.83 Kiloponds and 11.58 Kiloponds and 8.88 Kiloponds
Compact observations ([4]; fast speed 300 mm/s): Good shiny
Ejection Force ([4]; fast speed 300 mm/s): 0.441 kN and 0.456 kN and 0.417 kN
Peak Force of Upper punch ([4]; fast speed 300 mm/s): 14.566 kN and 14.542 kN and 14.717 kN
Yield Pressure ([4]; fast speed 300 mm/s): 129.865 Mpa and 129.108 Mpa and 129.861 Mpa
Compact strength ([4]; slow speed 0.1 mm/s): 12.07 Kiloponds and 7.52 Kiloponds and 9.64 Kiloponds and 9.19 Kiloponds
Compact observations ([4]; slow speed 0.1 mm/s): Good shiny
Ejection Force ([4]; slow speed 0.1 mm/s): 0.044 kN and 0.053 kN and 0.080 kN and 0.060 kN
Peak Force of Upper punch ([4]; slow speed 0.1 mm/s): 20.211 kN and 24.088 kN and 24.175 kN and 23.906 kN
Yield Pressure ([4]; slow speed 0.1 mm/s): 106.465 Mpa and 117.516 Mpa and 118.116 Mpa and 115.227 Mpa
Yield pressure Slow (0.1 mm/s) [4]: 114.33 Mpa (±5.39)
Yield pressure fast (300 mm/s) [4]: 129.61 Mpa (±0.44)
Strain rate sensitivity [4]: 13.4%

Cl.Cl.Cl.Cl.NCCNCCNCCN [Reference Example 3, triethylenetetramine tetrachloride, reference compound]
True Density ([1]; listed as Ref Example 3): 1.3523 g/mL and 1.3431 g/mL
True Density MEAN ([1]; listed as Ref Example 3): 1.3477 g/mL
DVS weight gain at high relative humidity ([2]; listed as Ref Example 3): ≥ 60.8%
DVS weight above reference weight after sorption/desorption cycle ([2]; listed as Form A): 14-15%
DVS weight above reference weight after sorption/desorption cycle ([2]; listed as Ref Example 3): 14.4%
DVS weight above reference weight, minimum value reached ([2]; second desorption stage): 7.9%
Compact strength ([4]; fast speed 300 mm/s): 4-6 Kiloponds
Compact observations [4, 6]: Good but blistering
Ejection Force [4, 6]: 0.421 kN and 0.327 kN and 0.381 kN
Peak Force of Upper punch [4, 6]: 14.644 kN and 14.752 kN and 14.617 kN
Yield Pressure [4, 6]: 127.197 Mpa and 125.309 Mpa and 129.748 Mpa
Compact strength [4, 6]: 6.59 Kiloponds and 4.27 Kiloponds and 4.75 Kiloponds
Compact strength ([4]; slow speed 0.1 mm/s): 6-11 Kiloponds
Compact observations [4, 7]: Good
Ejection Force [4, 7]: 0.039 kN and −0.007 kN and −0.020 kN
Peak Force of Upper punch [4, 7]: 20.830 kN and 18.543 kN and 19.570 kN
Yield Pressure [4, 7]: 101.529 Mpa and 95.501 Mpa and 97.474 Mpa
Compact strength [4, 7]: 6.41 Kiloponds and 7.45 Kiloponds and 11.17 Kiloponds
Yield pressure Slow (0.1 mm/s) ([4]; listed as Ref Example 3): 98.17 Mpa
Yield pressure fast (300 mm/s) ([4]; listed as Ref Example 3): 127.42 Mpa
Strain rate sensitivity ([4]; listed as Ref Example 3): 29.8%
Tablet appearance after aging [5]: discoloured patches
